Test results reported in patent US9597295B2, “Diene compounds for use in human epidermal cell repair, and pharmaceutical and cosmetic compositions containing them” (GIULIANI S.P.A., priority 2009, dated 2017).

Columns and labels:
IL-1α = IL-1α quantification in the growth medium using ELISA; format: cell-based, human; conditions: RHE growth medium, 0.1% single dose, after 24 h
Description: The release of IL-1α was assayed in 200 μl of the growth medium underneath the RHE at preset sampling times using a highly-sensitive, specific ELISA (enzyme-linked immunosorbent assay) kit according to the manufacturer's instructions. The end-product was quantified at 450 nm.
The underlying growth medium for each RHE was collected immediately after the recovery time and stored at −20° C. in plastic cryo-vials.
Before the test, the medium was conditioned at room temperature. The results were expressed as pg/ml of IL-1α. Concentrations between 3.9 and 250 pg/ml were considered within the range of sensitivity.

[1] = tested on: reconstructed human epidermis (RHE); test: H&E histology of reconstructed human epidermis; format: cell-based; conditions: single acute administration at 0.1%
Text: (§1) The RHE (SkinEthic®) 0.5 cm^2, which reproduces the morphology of the epidermis, was accurately characterised: a fully-differentiated epidermis develops after 17 days of airlift culture of NHK (normal human keratinocytes) from skin biopsies in a given medium (MCDB153).
At the end of the study period, the tissues were washed with PBC, fixed in 10% buffered formalin and prepared for histological examination.
The tissue was embedded in paraffin blocks and cut into sections (3-5μ thick) on a microtome. The sections were then transferred to slides, deparaffinised and rehydrated, then stained with haematoxylin and eosin (H&E).
The samples for histology were analysed under the microscope. The overall morphology and any changes by comparison with the negative controls were assessed and recorded in the laboratory report.
The samples for histology were analysed under the Leica microscope DM2500 and recorded using the Leica Application Suite (LAS) software.

cK-14 (KRT 14) mRNA = test: cK-14 mRNA expression by real-time PCR in reconstructed human epidermis; format: cell-based; conditions: RHE, 0.1%, during the whole study, by comparison with the controls
Description: as §1
(§2) On arrival, the RHE (day 11) were removed from the agarose nutrient solution under a flow of sterile air. The inserts were rapidly plated in six-well plates previously filled with 1 ml of growth medium each at 37° C., […], and 90% relative humidity, taking care to avoid any formation of bubbles underneath the insert.
The substances tested were solubilised in DMSO (Sigma) to obtain a final concentration of 0.2%. […]
(§3) The “Applied Biosystems 7500 real-time PCR” instrument uses PCR chemistry based on fluorescence, the TaqMan assay.
This technique uses Taqman probes to identify the fluorescent signal: it is highly sensitive and consists in amplifying and quantifying a specific nucleic acid sequence. The PCR product is detected in real time. The DNA, cDNA or RNA are quantified by determining the cycle in which the PCR product can be identified first, and therefore not when the reaction has reached saturation. The product is quantified by detecting the fluorescence measured in each cycle: the entity of the signal is directly proportional to the quantity of product amplified. […]

cK-19 (KRT19) mRNA = test: cK-19 mRNA expression by real-time PCR in reconstructed human epidermis; format: cell-based; conditions: RHE, single 20 μl dose at 0.1%
Description: as §1, §2
The substances tested were solubilised in DMSO (Sigma) to obtain a final concentration of 0.2%.
This stock solution was diluted in PBS to achieve the 0.1% of active principle.
The solution was applied with care to each tissue using a micro-pipette in a single dose of 20 μl.
The method is based on the capacity of the glass fibres to bind the nucleic acid in chaotropic concentrated saline solutions. The samples are disrupted in a highly-concentrated solution of guanidinium salts that lyse the cells and inactivate the endogenous RNase. The lysate is diluted with ethanol to make the […] competent for binding with the glass fibre of the filter in the filter cartridge. The RNA binds to the filter, while the other cell components slide freely through the filter. The filter is then washed three times and the RNA is eluted in a solution with a very low ionic strength.
The rationale in this method is based on the use of random primers to begin cDNA synthesis that ensure an efficient synthesis of the first helix of all the RNA molecules present.
as §3
This technique uses Taqman probes to identify the fluorescent signal: it is highly sensitive and consists in amplifying and quantifying a specific nucleic acid sequence. The PCR product is detected in real time. The DNA, cDNA or RNA are quantified by determining the cycle in which the PCR product can be identified first, and therefore not when the reaction has reached saturation. The product is quantified by detecting the fluorescence measured in each cycle: the entity of the signal is directly proportional to the quantity of product amplified.
The relative quantification is measured from the difference between the expression of the nucleic acid sequence of a sample being tested and the same sequence in the calibration sample.
Each biological sample was processed in triplicate. The Taqman gene expression assay and cDNA (25 ng) were added to the “2× TaqMan Universal PCR Master Mix”, making up to a total volume of 25 μl.
The tissues were homogenised in 300 μl of lysis buffer for […] extraction.
On day 1, the RHE were 12 days old. The substances being tested (in duplicate) and the controls were applied in a single dose (20 μl). The RHE were then incubated without further treatment for 24 hours.

cK-10 = cK-10 immunohistochemical expression in the RHE (separate study); format: cell-based, human; conditions: day 17 of differentiation, versus untreated controls
Text: Finally, in a separate study conducted using similar methods, the expression of cK-10 in the RHE was studied on days 15 and 17 of differentiation, recorded by its immunohistochemical expression. cK-10 is a marker of the terminal differentiation of the keratinocytes at granular and spinal level.

[2] = 24 hours of treatment, day 13, calibrated to DMSO controls
[3] = 48 hours of treatment, day 15, by comparison with the PBS control
[4] = 120 hours of treatment, day 17 (final differentiation), by comparison with the controls

SMILES | release of IL-1α (IL-1α) | toxicity (histomorphological analysis, cK-16 expression, IL-1α release) [1] | cK-14 expression (marker of mitotic activity) (cK-14 (KRT 14) mRNA) | cK-19 mRNA gene expression (cK-19 (KRT19) mRNA; [2]) | cK-19 mRNA gene expression (cK-19 (KRT19) mRNA; [3]) | cK-19 mRNA gene expression (cK-19 (KRT19) mRNA; [4]) | cK-10 immunohistochemical expression (cK-10)
C/C=C/C=C/C=C/CO [PRT, 2E,4E,6E-Octatrien-1-ol] | no such release | toxicity similar for retinol and 2,4,6-octatrien-1-ol |  |  |  |  | 
CC1=C(/C=C/C(C)=C/C=C/C(C)=C/CO)C(C)(C)CCC1 [RET, Retinol] | early but very low release | toxicity similar for retinol and 2,4,6-octatrien-1-ol | did not differ significantly | regulation level resembling the values of the calibrator | diminished | up-regulation | negative
C/C=C/C=C/C=C/C(=O)OCC [DPRT, 2E,4E,6E-Octa-2,4,6-trienoic acid ethyl ester] | no such release | no relevant signs of toxicity |  | much diminished | not diminished | up-regulation | 
